Source: patent US20160340656A1, “PEPTIDES DERIVED FROM GSE 24.2 FOR TREATING DISEASES CAUSED BY OXIDATIVE STRESS AND DAMAGE TO DNA” (CONSEJO SUPERIOR DE INVESTIGACIONES CIENTÍFICAS (CSIC), priority 2013, published 2016)
“Also recorded” adds a separate entry of the source.

How the values were obtained:
[1] = test system: AT cells (AT3784); test: Damage to DNA in AT cells: pCHK2 Thr68 foci after lentiviral expression of GSE24.2; assay type: cell-based, human
Method: FIG. 2. Determination of damage to DNA in AT cells: AT3784 AT cells were infected with a lentiviral vector expressing GSE24.2 or a GFP empty vector and were fixed 24 hours later to be processed and hybridised with an antibody against the kinase pCHK2[…]. Control C-1787 cells were used as the negative control. Next they were hybridised with a fluorescein-labelled antibody and were stained with DAPI to locate the nuclei. […] Therefore expression of GSE24.2 is able to correct damage to DNA in 28% of cells, confirming the data obtained with phosphorylated histone H2AX.

[2] = test system: HeLa cells; test: Internalisation of fluorescein-labelled peptides, confocal fluorescence microscopy; assay type: cell-based
Method: FIG. 21. Transfection of peptides GSE4 and GSE4NLS1 in HeLa cells. Peptides GSE4 and GSE4NLS1 (SEQ ID No. 7) labelled with fluorescein and obtained by chemical synthesis were transfected into HeLa cells using the Proteojuice reagent and viewed in a confocal fluorescence microscope at 9, 24 and 48 hours after transfection.
FIG. 22. Internalisation of peptides GSE4 and GSE4NLS1 in HeLa cells. Peptides GSE4 and GSE4NLS1 (SEQ ID No. 7) labelled with fluorescein and obtained by chemical synthesis were added to the culture medium of HeLa cells and viewed in a confocal fluorescence microscope at 9, 24 and 48 hours after transfection.
Given the ability of sequence NLS1 to contribute to the activity of GSE24.2, a synthetic peptide into which this sequence was placed in the 3′ region of peptide GSE4 was constructed as this was the peptide for which the greatest telomerase activation was obtained. The peptides obtained by chemical synthesis were labelled with fluorescein to facilitate their visualisation in a fluorescence microscope. Two experiments were performed in parallel, in one the peptides were transfected using Proteojuice reagent and in the other they were added directly to the culture medium. […] An important difference observed was that when the peptides were added directly to the culture medium, the peptide entered into a higher number of cells than when Proteojuice was used. The reagent provided greater effectiveness for internalisation but into a small number of cells.

[3] = test system: AT2078 cells of patients with ataxia telangiectasia; test: Damage to DNA in AT2078 cells: histone H2AX Ser139 foci after expression of GSE4 or SGSE4; assay type: cell-based, human
Method: FIG. 14. Determination of damage to DNA in AT cells after transfecting peptides GSE4 and SGSE4: AT2078 AT cells were infected with a lentiviral vector expressing GSE4, SGSE4 or a GFP empty vector and 24 hours later were fixed for processing and hybridised with an antibody against phosphorylated histone H2AX (Ser139). Control C-1787 cells were used as the negative control. Next they were hybridised with a fluorescein-labelled antibody and were stained with DAPI to locate the nuclei.
As the peptide denominated GSE4 was the smallest sized of the peptides with ability to inhibit damage to DNA, we studied if another peptide with a similar sequence localised in the sequence of peptide GSE24.2 had the same activity or if that activity was specific to GSE4. Peptide SGSE4 (SEQ ID No. 15) is similar to GSE4 in sequence (amino acids LDPK/LDKP that constitute consensus sequences for pseudouridine synthases) and size and is found in the TRUBII domain of dyskerin. Cell lines AT2078 of patients with ataxia telangiectasia were used for this test. Cell line C-1787 was used as the control cell line. The cells were infected with the bicistronic lentiviral vector pCMV-GFP-GSE4, SGSE4 or GFP. After 48 hours of infection the cells were fixed with formaldehyde and then permeabilized by treating them with Triton X-100. The damage to DNA was estimated by studying the signal after hybridisation of the cells with an antibody against histone H2AX Ser139 and subsequent hybridisation with an antibody bound to fluorescein. The number of foci with stain for histone H2AX per nucleus was determined by confocal microscopy in a total of 200 cells and the data represented as a percentage of cells with a specific number of foci.

[4] = test system: F9A353V cells; test: Repair of damage to DNA: Western blot of histone H2AX (Ser139) in F9A353V cells transfected with synthetic peptides; assay type: cell-based
Method: FIG. 6. Western blot of F9 and F9A353V cells after 24 hours of transfection with chemically synthesized peptides derived from GSE24.2. The peptides indicated on each line of gel were transfected (15 μg of each peptide) on a 30 mm plate. After separating the protein extracts on polyacrylamide gels and transferring them to a nitrocellulose membrane, the membrane was hybridised with an antibody against histone H2AX (Ser139) and then with an antibody against α-tubulin as a loading control.
FIG. 7. Quantification of Western blot of FIG. 6. The signal obtained with histone H2AX (Ser139) was corrected with the signal of α-tubulin considering the signal obtained with the F9 cells transfected with beta-galactosidase (as control) as 1, using the NIH-Image program.
FIG. 8. Western blot of F9 and F9A353V cells after 24 of transfection with the GSE4 peptide at increasing concentrations. […]
FIG. 9. Quantification of the Western blot of FIG. 8. […]
In order to optimise the operating conditions of peptide GSE4, different amounts of peptide GSE4 were transfected into F9A353V cells and the amount of damage to DNA was determined using a specific antibody as was performed in FIG. 6 (FIG. 8). After quantification of the Western blot (FIG. 9), maximum inhibition of damage to DNA was obtained by transfecting 8 μg of peptide GSE4.

Sequence | cells in which damage to DNA is corrected [1] [%] | fewer AT cells showing basal damage ([1]; after expressing GSE24.2) [%] | reduction of high levels of damage to DNA ([1]; after expressing GSE24.2) [%] | entry into cells ([2]; peptide simply added to the culture medium) | entry into cells ([2]; transfected using Proteojuice reagent) | overall correction of damage to DNA [3] [%] | AT cells in which overall damage to DNA is corrected ([3]; 200 cells) [%] | amount of peptide transfected giving maximum inhibition of damage to DNA ([4]; increasing amounts of peptide) [µg] | repair of damage to DNA (phosphorylation of histone H2AX) ([4]; peptides lipofected with Proteojuice, 24 hours)
GFINLDKPSNPSSHEVVAWIRRILRVEKTGHSGTLDPKVTGCLIVCIERATRLVK (GSE24.2; listed as Homo sapiens) [55-amino-acid peptide corresponding to the protein dyskerin; known from WO2007/090911] | 28 | 25 | 13 | – | – | – | – | – | –
GFINLDKPSNP [GSE4] | – | – | – | entered the cells | entered the cells | 60 | 38 | 8 | substantially improved the activity of the full domain; also recorded: smallest sized peptide able to repair the damage to DNA
